Columns and labels:
[1] = target: LeuT (leucine transporter) (Aquifex aeolicus, UniProt O67854); test: scintillation proximity assay; type: binding; settings: labelled compound; DDM or NBMs at CMC + […] or […] wt %; room temperature
[2] = target: T1, MelBSt (melibiose permease of Salmonella typhimurium) (Salmonella enterica, UniProt P30878); test: reversal of Trp to D^2G FRET in detergent extract of membrane vesicles; type: binding; settings: saturating melibiose; […] D^2G; DDM or D-NBM-C11; competitive
[3] = target: T2, MelBEc (MelB homologue from E. coli) (Escherichia coli, UniProt P02921); test: as above; type: binding; settings: saturating melibiose; […] D^2G; D-NBM-C11; competitive
[4] = target: T2, MelBEc (MelB homologue from E. coli); test: Trp to dansyl FRET in detergent extract of membrane vesicles; settings: […] D^2G; D-NBM-C11; sugar binding site
[5] = target: T1, MelBSt (melibiose permease of Salmonella typhimurium); test: as above; settings: […] D^2G; DDM or D-NBM-C11; sugar binding site

T2 sequence (P02921 2-473): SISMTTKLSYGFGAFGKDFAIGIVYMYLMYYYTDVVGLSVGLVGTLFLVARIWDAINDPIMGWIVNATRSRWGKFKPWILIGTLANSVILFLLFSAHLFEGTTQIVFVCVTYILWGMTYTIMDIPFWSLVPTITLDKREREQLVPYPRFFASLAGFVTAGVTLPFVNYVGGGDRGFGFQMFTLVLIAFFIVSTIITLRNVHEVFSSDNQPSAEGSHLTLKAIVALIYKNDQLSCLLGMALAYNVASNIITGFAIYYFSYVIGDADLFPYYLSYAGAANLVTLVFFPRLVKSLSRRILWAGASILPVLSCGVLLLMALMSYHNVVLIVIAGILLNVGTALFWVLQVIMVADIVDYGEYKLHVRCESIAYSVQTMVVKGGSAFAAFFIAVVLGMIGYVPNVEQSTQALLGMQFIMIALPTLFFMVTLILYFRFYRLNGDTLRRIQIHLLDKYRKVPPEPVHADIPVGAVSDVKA
T1 sequence (P30878 whole entry): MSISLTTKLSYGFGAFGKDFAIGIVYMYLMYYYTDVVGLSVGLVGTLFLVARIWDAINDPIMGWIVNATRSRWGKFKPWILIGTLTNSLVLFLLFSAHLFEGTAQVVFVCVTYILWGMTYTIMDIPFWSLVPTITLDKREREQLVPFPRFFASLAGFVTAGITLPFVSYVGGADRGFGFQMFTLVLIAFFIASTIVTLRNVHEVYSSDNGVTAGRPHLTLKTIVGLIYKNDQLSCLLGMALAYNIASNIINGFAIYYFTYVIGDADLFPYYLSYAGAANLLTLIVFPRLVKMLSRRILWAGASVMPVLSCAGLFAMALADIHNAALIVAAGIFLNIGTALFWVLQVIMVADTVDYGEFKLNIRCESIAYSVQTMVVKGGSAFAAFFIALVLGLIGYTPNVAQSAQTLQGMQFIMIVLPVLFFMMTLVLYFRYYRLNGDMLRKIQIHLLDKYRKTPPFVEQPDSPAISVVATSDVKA

In the case of `CC(C)C[C@H](N)C(=O)O` [[^3H]-Leu], the scintillation proximity assay [1] is reported as “ability of the transporter to bind radiolabeled leucine [^3H-Leu]”.
In the case of `OC[C@H]1O[C@H](OC[C@H]2OC(O)[C@H](O)[C@@H](O)[C@@H]2O)[C@H](O)[C@@H](O)[C@H]1O` (some centres unmarked) [melibiose], the “reversal of Trp to D^2G FRET in detergent extract of membrane vesicles” value [2] is reported as “MelBSt solubilized in DDM showed an effective melibiose reversal of FRET” and the “reversal of Trp to D^2G FRET in detergent extract of membrane vesicles” value [3] is reported as “both MelB proteins gave remarkable levels of galactoside binding in D-NBM-C11”.
With `CN(C)c1cccc2c(S(=O)(=O)NCCS[C@@H]3O[C@H](CO)[C@H](O)[C@H](O)[C@H]3O)cccc12` [2′-(N-dansyl) aminoalkyl-1-thio-β-D-galactopyranoside] the “Trp to dansyl FRET in detergent extract of membrane vesicles” value [4] was “both MelB proteins gave remarkable levels of galactoside binding in D-NBM-C11” and the “Trp to dansyl FRET in detergent extract of membrane vesicles” value [5] was “FRET from tryptophan residues (Trp) to a fluorescent ligand”.
